According to ChEMBL document CHEMBL1144945, “Development of progesterone receptor antagonists from 1,2-dihydrochromeno[3,4-f]quinoline agonist pharmacophore” (Bioorg Med Chem Lett, 2003):
Calls of active or inactive are those of the source.

Columns and labels:
[1] = biological target: T1, Progesterone receptor (Homo sapiens, UniProt P06401)
T1 sequence (P06401 whole entry): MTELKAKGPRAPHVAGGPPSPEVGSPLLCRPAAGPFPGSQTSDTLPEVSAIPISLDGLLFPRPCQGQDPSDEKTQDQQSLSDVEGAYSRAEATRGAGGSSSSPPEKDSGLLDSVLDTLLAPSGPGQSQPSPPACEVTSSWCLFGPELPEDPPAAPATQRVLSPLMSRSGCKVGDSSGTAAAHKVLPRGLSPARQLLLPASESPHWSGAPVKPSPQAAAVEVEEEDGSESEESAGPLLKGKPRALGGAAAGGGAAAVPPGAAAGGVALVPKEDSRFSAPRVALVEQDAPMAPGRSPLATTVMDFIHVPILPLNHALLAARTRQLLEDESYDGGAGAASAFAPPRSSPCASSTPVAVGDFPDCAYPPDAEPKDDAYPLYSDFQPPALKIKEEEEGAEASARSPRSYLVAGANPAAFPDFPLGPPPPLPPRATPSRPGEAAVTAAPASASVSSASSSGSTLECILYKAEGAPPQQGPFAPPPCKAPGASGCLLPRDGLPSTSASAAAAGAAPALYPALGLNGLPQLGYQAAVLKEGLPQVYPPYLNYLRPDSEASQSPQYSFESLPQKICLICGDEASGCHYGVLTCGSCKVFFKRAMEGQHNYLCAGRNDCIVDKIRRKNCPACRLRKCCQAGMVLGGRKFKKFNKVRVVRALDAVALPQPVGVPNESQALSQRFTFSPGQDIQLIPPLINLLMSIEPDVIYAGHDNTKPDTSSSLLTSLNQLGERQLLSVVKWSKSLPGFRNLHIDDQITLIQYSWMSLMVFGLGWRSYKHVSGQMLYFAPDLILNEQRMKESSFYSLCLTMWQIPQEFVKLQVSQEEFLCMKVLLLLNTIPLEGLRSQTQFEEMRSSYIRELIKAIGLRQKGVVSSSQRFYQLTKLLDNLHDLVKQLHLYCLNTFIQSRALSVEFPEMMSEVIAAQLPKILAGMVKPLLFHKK
Description: Antagonistic activity at human progesterone receptor in CV-1 cells.

[2] = biological target: T1, Progesterone receptor; remark: listed apart in the source
[3] = biological target: T1, Progesterone receptor; remark: listed apart in the source
Description: Binding affinity at human progesterone receptor.

[4] = biological target: T1, Progesterone receptor; remark: listed apart in the source
Description: Inhibition of human progesterone receptor activation in T47D human breast cancer cell.

[5] = biological target: T2, Mineralocorticoid receptor (Homo sapiens, UniProt P08235); assay: Inhibition of antagonist activity towards mineralocorticoid receptor (hMR); assay type: functional
T2 sequence (P08235 whole entry): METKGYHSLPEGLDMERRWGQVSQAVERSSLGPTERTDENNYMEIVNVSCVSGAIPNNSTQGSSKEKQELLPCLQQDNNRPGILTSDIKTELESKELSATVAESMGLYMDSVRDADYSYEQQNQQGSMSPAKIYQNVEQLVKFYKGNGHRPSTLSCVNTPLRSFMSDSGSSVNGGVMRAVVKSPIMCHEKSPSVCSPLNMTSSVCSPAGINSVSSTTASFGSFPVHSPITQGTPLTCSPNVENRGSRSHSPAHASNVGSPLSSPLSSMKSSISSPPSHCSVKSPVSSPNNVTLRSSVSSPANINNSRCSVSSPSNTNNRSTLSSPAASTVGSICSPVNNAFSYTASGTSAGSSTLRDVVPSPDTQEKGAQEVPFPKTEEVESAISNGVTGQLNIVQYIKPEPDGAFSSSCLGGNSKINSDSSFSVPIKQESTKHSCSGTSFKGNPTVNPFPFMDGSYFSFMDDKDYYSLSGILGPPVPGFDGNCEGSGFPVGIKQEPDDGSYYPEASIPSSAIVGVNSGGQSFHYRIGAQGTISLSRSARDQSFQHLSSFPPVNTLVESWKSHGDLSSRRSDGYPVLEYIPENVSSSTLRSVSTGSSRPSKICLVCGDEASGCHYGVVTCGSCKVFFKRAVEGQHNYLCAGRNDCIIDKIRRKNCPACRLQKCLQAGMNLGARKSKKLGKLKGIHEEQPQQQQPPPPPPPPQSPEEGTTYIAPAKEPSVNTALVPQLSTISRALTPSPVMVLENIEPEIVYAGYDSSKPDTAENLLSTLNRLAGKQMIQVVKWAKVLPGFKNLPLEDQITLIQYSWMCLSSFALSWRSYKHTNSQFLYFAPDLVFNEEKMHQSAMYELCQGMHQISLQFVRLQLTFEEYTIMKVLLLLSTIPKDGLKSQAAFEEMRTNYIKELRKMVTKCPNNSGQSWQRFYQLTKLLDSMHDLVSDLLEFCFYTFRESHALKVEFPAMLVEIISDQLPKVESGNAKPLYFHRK

[6] = biological target: T3, Mineralocorticoid receptor (Homo sapiens) (UniProt P08235); assay: Antagonist efficacy for mineralocorticoid receptor (hMR); assay type: functional
T3 sequence (whole entry): T2 sequence (P08235 whole entry)

[7] = biological target: T4, Progesterone receptor (Homo sapiens) (UniProt P06401); assay: Effective concentration against human progesterone receptor in T47D human breast cancer cell; not active (<20% efficacy and/or >10 mM potency); assay type: cell-based; conditions: Cancer cell lines
T4 sequence (whole entry): T1 sequence (P06401 whole entry)

[8] = biological target: T4, Progesterone receptor (Homo sapiens); assay: Agonist efficacy for human progesterone receptor in T47D human breast cancer cell; not active (<20% efficacy and/or >10 mM potency); assay type: functional, cell-based
[9] = biological target: T5, Glucocorticoid receptor (Homo sapiens, UniProt P04150); assay: Inhibition of antagonist activity towards glucocorticoid receptor; assay type: functional
T5 sequence (P04150 whole entry): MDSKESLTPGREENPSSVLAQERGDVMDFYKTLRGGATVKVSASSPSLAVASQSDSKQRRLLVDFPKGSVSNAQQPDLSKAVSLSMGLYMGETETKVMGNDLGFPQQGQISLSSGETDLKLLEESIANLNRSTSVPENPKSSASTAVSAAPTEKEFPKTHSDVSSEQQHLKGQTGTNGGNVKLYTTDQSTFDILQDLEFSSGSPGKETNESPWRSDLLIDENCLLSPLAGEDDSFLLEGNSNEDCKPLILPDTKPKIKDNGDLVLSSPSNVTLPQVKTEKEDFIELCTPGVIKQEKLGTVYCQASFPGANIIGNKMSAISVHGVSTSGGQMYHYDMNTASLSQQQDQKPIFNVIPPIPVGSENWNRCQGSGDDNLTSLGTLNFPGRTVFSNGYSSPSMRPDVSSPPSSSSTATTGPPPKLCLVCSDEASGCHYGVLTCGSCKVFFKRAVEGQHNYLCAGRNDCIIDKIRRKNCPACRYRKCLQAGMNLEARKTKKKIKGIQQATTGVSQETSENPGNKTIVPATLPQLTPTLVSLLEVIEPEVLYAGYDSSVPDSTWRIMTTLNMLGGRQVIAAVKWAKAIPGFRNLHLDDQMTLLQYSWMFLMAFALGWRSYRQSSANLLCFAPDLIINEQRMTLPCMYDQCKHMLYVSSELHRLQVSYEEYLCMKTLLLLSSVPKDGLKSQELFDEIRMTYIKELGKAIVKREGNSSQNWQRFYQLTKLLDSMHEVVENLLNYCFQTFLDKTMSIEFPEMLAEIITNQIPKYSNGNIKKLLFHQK

[10] = biological target: Estrogen receptor (Homo sapiens) (UniProt Q92731+P03372); assay: Antagonist efficacy for Estrogen receptor; Not active; assay type: functional
[11] = biological target: T6, Androgen receptor (Homo sapiens, UniProt P10275)
T6 sequence (P10275 whole entry): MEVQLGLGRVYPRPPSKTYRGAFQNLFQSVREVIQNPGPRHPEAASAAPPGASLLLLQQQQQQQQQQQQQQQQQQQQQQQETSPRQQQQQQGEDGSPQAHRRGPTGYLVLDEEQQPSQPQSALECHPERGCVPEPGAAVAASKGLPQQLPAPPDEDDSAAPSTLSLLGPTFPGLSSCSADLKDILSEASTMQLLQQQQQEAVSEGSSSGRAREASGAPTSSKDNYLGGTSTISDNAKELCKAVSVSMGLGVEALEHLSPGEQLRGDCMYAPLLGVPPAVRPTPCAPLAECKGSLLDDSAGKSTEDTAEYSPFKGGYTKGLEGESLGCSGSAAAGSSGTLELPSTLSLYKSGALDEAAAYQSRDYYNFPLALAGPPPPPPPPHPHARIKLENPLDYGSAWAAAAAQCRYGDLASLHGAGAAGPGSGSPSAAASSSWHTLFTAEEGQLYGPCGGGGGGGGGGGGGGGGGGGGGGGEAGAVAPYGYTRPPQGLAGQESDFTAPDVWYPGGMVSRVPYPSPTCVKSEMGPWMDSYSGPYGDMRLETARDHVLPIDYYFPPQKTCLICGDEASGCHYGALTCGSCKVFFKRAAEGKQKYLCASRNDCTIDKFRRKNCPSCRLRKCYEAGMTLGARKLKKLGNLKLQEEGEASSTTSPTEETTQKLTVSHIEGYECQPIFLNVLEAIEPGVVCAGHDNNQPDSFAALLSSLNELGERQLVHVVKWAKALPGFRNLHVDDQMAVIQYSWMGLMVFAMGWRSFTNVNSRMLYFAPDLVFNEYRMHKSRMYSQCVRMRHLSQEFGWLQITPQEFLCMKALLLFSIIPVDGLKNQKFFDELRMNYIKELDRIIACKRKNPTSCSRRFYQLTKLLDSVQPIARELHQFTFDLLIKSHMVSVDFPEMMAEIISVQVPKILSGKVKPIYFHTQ
Description: Inhibition of antagonist activity towards Androgen receptor

[12] = biological target: T1, Progesterone receptor; assay: Effective concentration for antagonistic activity towards human progesterone in CV-1 cells; assay type: functional, cell-based
[13] = biological target: T4, Progesterone receptor (Homo sapiens); assay: Agonist efficacy for human progesterone in T47D human breast cancer cell; assay type: functional, cell-based
[14] = biological target: T4, Progesterone receptor (Homo sapiens); assay: Antagonist efficacy for human progesterone in CV-1 cells; assay type: functional, cell-based
[15] = biological target: T4, Progesterone receptor (Homo sapiens); assay: Antagonist efficacy for human progesterone in T47D human breast cancer cell; assay type: functional, cell-based
[16] = biological target: T1, Progesterone receptor; assay: Effective concentration for human progesterone in T47D human breast cancer cell; assay type: cell-based, Cancer cell lines
[17] = biological target: T1, Progesterone receptor; assay: Binding towards human progesterone receptor
[18] = biological target: T1, Progesterone receptor; assay: Inhibition of human progesterone in T47D human breast cancer cell; assay type: cell-based
[19] = biological target: T1, Progesterone receptor; assay: Effective concentration for human progesterone receptor in T47D human breast cancer cell; not active (<20% efficacy and/or >10 mM potency); conditions: cancer cell lines

SMILES | EC50 [1] | EC50 [2] | Ki [3] | IC50 [4] | further results
CN(C)c1ccc([C@H]2C[C@]3(C)[C@@H](CC[C@]3(O)CCCO)[C@@H]3CCC4=CC(=O)CCC4=C32)cc1 [ONAPRISTONE] |  |  |  |  | IC50 [5]: 470 nM; Efficacy [6]: 49%; Activity [7]: inactive; Activity [8]: inactive
CC1=CC(C)(C)Nc2ccc3c(c21)COc1ccc([N+](=O)[O-])cc1-3 | 28.6 nM | 257 nM | 6.8 nM | 152 nM | IC50 [9]: 689 nM; Efficacy [10]: inactive; IC50 [5]: 1890 nM; Efficacy [6]: 79%; IC50 [11]: 60 nM
CC1CC(C)(C)Nc2ccc3c(c21)COc1c-3cc(F)cc1[N+](=O)[O-] (stereo unspecified) | 781 nM |  | 370 nM | 483 nM | Activity [7]: inactive; Activity [8]: inactive
COc1ccc2c(c1)-c1ccc3c(c1CO2)C(C)=CC(C)(C)N3 | 170 nM | > 1000 nM | 86 nM | 187 nM | 
COc1ccc2c(c1)OCc1c-2ccc2c1C(C)=CC(C)(C)N2 |  |  |  |  | EC50 [12]: 193 nM; Efficacy [13]: 24%; Efficacy [14]: 85%; Efficacy [15]: 83%; EC50 [16]: > 1000 nM; Ki [17]: 357 nM; IC50 [18]: 514 nM

Now from value to compound, other results behind:

EC50 [1] | EC50 [2] | Ki [3] | IC50 [4] | SMILES | further results
118 nM | > 1000 nM | 248 nM | 368 nM | CC1=CC(C)(C)Nc2ccc3c(c21)COc1c(F)cccc1-3 | 
2030 nM |  | > 1000 nM | 811 nM | CC1=CC(C)(C)Nc2ccc3c(c21)COc1ccc(-c2ccccc2)cc1-3 | Efficacy [8]: inactive; EC50 [19]: Not Active
178 nM |  | 205 nM | 374 nM | CC1=CC(C)(C)Nc2ccc3c(c21)COc1c(C)cc(Cl)cc1-3 | 
